From paper PMC7411887, “New Paracyclophanylthiazoles with Anti-Leukemia Activity: Design, Synthesis, Molecular Docking, and Mechanistic Studies” (Molecules, 2020)
“Also recorded” adds a separate entry of the source.

What was measured:
SR cancer cell line = test: Mitochondrial membrane potential assay; assay type: cell-based, human
ROS in SR cells = test: Mitochondrial production of ROS; assay type: cell-based, human; details: 30 min at 37 °C
Description: Mitochondria play an essential role in the propagation of apoptosis. It is reported that, at an early stage, apoptotic stimuli are capable of modifying the mitochondrial transmembrane potential (Δψmt). Δψmt was recorded by the fluorescence of the dye JC-1.20. […] . The disruption of Δψmt is associated with the appearance of annexin V positivity in the treated cells when they are in an early apoptotic stage. It is documented that the dissipation of Δψmt is characteristic of apoptosis, and this was indicated with both microtubule-stabilizing and -destabilizing agents in different cell types. […] Mitochondrial membrane depolarization is associated with mitochondrial production of ROS [35]. Therefore, we investigated whether ROS production increased after treatment with the test compounds.
Figure 13 Mitochondrial production of ROS in SR cells with 3a and colchicine reference compared to control. […]
5. Adjust the cell concentration so at least 1 x10^4 cells should be analyzed per experimental condition. […] Mean fluorescence intensity in Ex/Em = 495/529 nm can be quantified and compared between untreated cells and cells treated with test compounds, or between different cell types. […]
4. For adherent cells: remove the ROS Label, add 100 μl of ROS Assay Buffer or PBS and measure fluorescence immediately, or treat the cells with 100 μL of diluted test compound(s) for desired period of time. […]

BAX = BAX assay on leukemia SR cell line; assay type: cell-based, human; details: for BAX Concentration: ± SD
Description: 19. Read the concentrations for unknown samples and controls from the standard curve.
All standards, controls and samples should be run in duplicate. […]
desiccant back into the pouch and seal the ziploc. Store unused wells at 4 °C.
4. Pipet 100 μL of the Samples into the appropriate wells.
7. Empty the contents of the wells and wash by adding 400 μL of wash solution to every well.
8. Repeat the wash 4 more times for a total of 5 washes.
9. After the final wash, empty or aspirate the wells and firmly tap the plate on a lint free paper towel to remove any remaining wash buffer.
10. Pipet 100 μL of yellow Antibody into each well, except the Blank.
12. Empty the contents of the wells and wash by adding 400 μL of wash solution to every
13. Repeat the wash 4 more times for a total of 5 washes.
14. After the final wash, empty or aspirate the wells and firmly tap the plate on a lint free
(§1) 17. Empty the contents of the wells and wash by adding 400 μL of wash solution to every
(§2) 18. Repeat the wash 4 more times for a total of 5 washes.
(§3) 19. After the final wash, empty or aspirate the wells and firmly tap the plate on a lint free
(§4) 20. Pipet 100 μL of Substrate Solution into each well.
(§5) 21. Incubate for 30 minutes at room temperature on a plate shaker at ~500 rpm.
(§6) 1. Mix all reagents thoroughly without foaming before use.
(§7) 3. Take caution not to scratch the surface of the microwells.
5. Use the microwell strips immediately after washing or place upside down on a wet absorbent paper for not longer than 15 minutes.
(§8) Prepare standard (1:2 dilution) in duplicate ranging from 32

Bcl-2 = Bcl-2 assay on leukemia SR cell line; assay type: cell-based, human; details: for Bcl2 Concentration: ± SD
Description: as §1, §2, §3
paper towel to remove any remaining wash buffer.
as §4, §5, §6, §7
5. Use the microwell strips immediately after washing or place upside down on a wet
absorbent paper for not longer than 15 minutes.
as §8
8. Add 50 μL of diluted biotin-conjugate to all wells, including the blank wells.
10. Remove plate cover and empty the wells.
13. Remove plate cover and empty the wells.
Proceed to the next step.
available on a rotator set at 100 rpm. Avoid direct exposure to intense light.

leukemia SR cells = test: Cell cycle analysis, propidium iodide flow cytometry; details: for DNA Content % %G0-G1 / DNA Content % %G2-M / DNA Content % %Pre G1 / DNA Content % %S: at IC50, 24 h

| SMILES | mitochondrial membrane potential % Live cells (SR cancer cell line) [%] | mitochondrial membrane potential ΔΨm % Apoptic cells (SR cancer cell line) [%] | shift in fluorescence (Δψmt) compared with control cells (SR cancer cell line) | ROS % of control (ROS in SR cells) [%] | BAX Fold Change (BAX; relative to control) [fold] | BAX Concentration (BAX) [pg/mL] | Bcl2 Fold Change (Bcl-2; relative to control) [fold] | Bcl2 Concentration (Bcl-2) [ng/mL] | DNA Content % Comment (leukemia SR cells) | DNA Content % %G0-G1 (leukemia SR cells) [%] | DNA Content % %G2-M (leukemia SR cells) [%] | DNA Content % %Pre G1 (leukemia SR cells) [%] | DNA Content % %S (leukemia SR cells) [%] |
| --- | --- | --- | --- | --- | --- | --- | --- | --- | --- | --- | --- | --- | --- |
| COC(=O)C=C1SC(=NNC(=O)c2cc3ccc2CCc2ccc(cc2)CC3)N(c2ccccc2)C1=O [Compound 3a] | 68.8 | 31.2 | non-significant shift | 112.10 | ~7.98 | 359 ± 3.830 | 0.59 | 5.045 ± 0.1918 | significant growth arrest at the G2/M phase; also recorded: cell growth arrest (G2/M) | 31.47 | 44.74 ± 0.1747 | 33.71 | 23.79 |
| COc1cc2c(c(OC)c1OC)-c1ccc(OC)c(=O)cc1[C@@H](NC(C)=O)CC2 [Colchicine, colchicine, reference compound] | 65.04 | 34.96 | significant results | 96.18 |  | 341.8 ± 4.310 |  | 4.101 ± 0.1441 | cell growth arrest (G2/M) | 26.58 | 48.15 ± 1.000 | 36.24 | 25.27 |
